# System: T. b. rhodesiense STIB900 proliferation, Alamar blue, 72 h
# Assay: African trypanosome bloodstream form growth inhibition – STIB900 strain, plate reader, cherry pick, dose response (AID 651893)
compound,measurement,value
C[C@@H]1CN([C@@H](C)CO)C(=O)c2cccc(NC(=O)c3ccncc3)c2O[C@H]1CN(C)Cc1ccc(Oc2ccccc2)cc1,IC50,0.715 µM

# From PubChem BioAssay AID651893 (Broad Institute, 2012)
